Test results: PMC11009956, “Initial Primer Synthesis of a DNA Primase Monitored by Real-Time NMR Spectroscopy” (Journal of the American Chemical Society, 2024)
Numbering of substitutions follows the chain as printed.

How the values were obtained:
[1] = target: T1, functional pRN1 primase (Saccharolobus islandicus, UniProt Q54324); experiment: […] CP-MAS solid-state NMR; 1H-detected hNH NMR; assay type: biochemical; conditions: formed in situ from ATP^N and dGTP^C on primase-DNA complex; triphosphate remains bound to HBD
T1 construct: primase part (catalytic domain plus HBD), residues 40-370, monomeric, expressed in E. coli BL21(DE3) Codon+, Ni2+ IMAC purified (tag not described)

[2] = target: T2, helix-bundle domain (HBD) of pRN1 primase (Saccharolobus islandicus, UniProt Q54324); experiment: 1H-15N HSQC NMR titration; assay type: binding; conditions: 10 mM MgCl2, pH 7.0, 298 K
T2 construct: helix-bundle domain, residues 256-370, expressed in E. coli BL21(DE3) Codon+, Ni2+ IMAC purified (tag not described)

[3] = target: T1, functional pRN1 primase; experiment: time-resolved solution NMR of dinucleotide formation; assay type: biochemical; conditions: primase-DNA complex
[4] = target: T2, helix-bundle domain (HBD) of pRN1 primase; experiment: 1H-15N HSQC NMR; assay type: binding; conditions: HBD-DNA complex
[5] = target: T1, functional pRN1 primase; experiment: […] CP-MAS solid-state NMR; 1H-15N HSQC NMR; assay type: biochemical; conditions: primase-DNA complex with dGTP^C; 10 mM MgCl2, pH 7.0; slow substrate
[6] = target: T3, catalytic domain of pRN1 primase (Saccharolobus islandicus, UniProt Q54324); experiment: 1H-15N HSQC NMR titration; assay type: binding; conditions: free catalytic domain, no DNA; 10 mM MgCl2, pH 7.0, 298 K; near active site (V148, S150)
T3 construct: catalytic domain, residues 40-248, expressed in E. coli BL21(DE3) Codon+, Ni2+ IMAC purified (tag not described)

[7] = target: T4, functional pRN1 primase (Saccharolobus islandicus, UniProt Q54324, H145A); experiment: […] CP-MAS solid-state NMR; assay type: binding; conditions: catalytically inactive mutant; primase-DNA complex with ATP^N; 10 mM MgCl2, pH 7.0
T4 construct: primase part (catalytic domain plus HBD), residues 40-370, monomeric, expressed in E. coli BL21(DE3) Codon+, Ni2+ IMAC purified (tag not described)
T4 sequence (Q54324 entry or part of it H145A): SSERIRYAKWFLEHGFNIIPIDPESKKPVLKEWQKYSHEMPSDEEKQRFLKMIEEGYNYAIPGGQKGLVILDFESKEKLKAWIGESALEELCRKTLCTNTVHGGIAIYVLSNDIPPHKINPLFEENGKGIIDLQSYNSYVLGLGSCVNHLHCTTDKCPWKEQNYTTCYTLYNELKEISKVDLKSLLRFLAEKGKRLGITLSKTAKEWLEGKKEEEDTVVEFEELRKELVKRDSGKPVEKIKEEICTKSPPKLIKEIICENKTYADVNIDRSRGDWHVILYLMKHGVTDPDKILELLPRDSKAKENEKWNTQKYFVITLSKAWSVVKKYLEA

[8] = target: T1, functional pRN1 primase; experiment: […] CP-MAS solid-state NMR; assay type: biochemical; conditions: primase-DNA complex with ATP^N; 10 mM MgCl2, pH 7.0, 281 K; bound by HBD, slow substrate
[9] = target: T5, pRN1 primase (functional primase) (Sulfolobus islandicus (plasmid pRN1), UniProt Q54324 40-370); experiment: NMR (1H-15N HSQC; 31P CP-MAS); ATPC + dGTPC; HBD titrations: 25 mM sodium phosphate pH 7.0, 75 mM NaCl, 10 mM MgCl2, 298 K, 0.1 mM HBD, HBD:DNA 1:1.1; solid-state NMR on sedimented complex at 278-309 K; conditions: protein: recombinant; single strand
T5 sequence: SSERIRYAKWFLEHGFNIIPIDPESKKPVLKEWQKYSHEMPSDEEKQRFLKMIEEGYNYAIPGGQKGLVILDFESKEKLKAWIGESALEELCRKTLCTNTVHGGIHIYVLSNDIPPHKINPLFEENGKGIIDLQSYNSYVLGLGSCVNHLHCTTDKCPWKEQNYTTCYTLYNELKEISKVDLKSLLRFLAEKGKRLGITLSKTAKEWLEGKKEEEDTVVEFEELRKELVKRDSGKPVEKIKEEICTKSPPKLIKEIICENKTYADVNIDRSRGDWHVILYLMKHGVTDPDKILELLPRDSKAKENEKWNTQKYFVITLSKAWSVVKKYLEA

[10] = target: T6, pRN1 primase helix-bundle domain (HBD) (Sulfolobus islandicus (plasmid pRN1), UniProt Q54324 256-370); experiment: NMR (1H-15N HSQC); ATP + dGTP, 10 mM Mg2+, 298 K; HBD titrations: 25 mM sodium phosphate pH 7.0, 75 mM NaCl, 10 mM MgCl2, 298 K, 0.1 mM HBD, HBD:DNA 1:1.1; solid-state NMR on sedimented complex at 278-309 K; conditions: protein: recombinant; single strand
T6 sequence: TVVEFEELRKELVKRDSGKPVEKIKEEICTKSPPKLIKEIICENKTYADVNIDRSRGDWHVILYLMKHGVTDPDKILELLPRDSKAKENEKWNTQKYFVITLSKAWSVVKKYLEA

[11] = target: T7, pRN1 primase H145A (Sulfolobus islandicus (plasmid pRN1), UniProt Q54324 40-370, H145A); experiment: solid-state NMR (31P CP-MAS, hNH); ATPN + dGTPC, Mg2+; HBD titrations: 25 mM sodium phosphate pH 7.0, 75 mM NaCl, 10 mM MgCl2, 298 K, 0.1 mM HBD, HBD:DNA 1:1.1; solid-state NMR on sedimented complex at 278-309 K; conditions: protein: recombinant; single strand
T7 sequence: T5 sequence with H106A

Nc1nc2c(ncn2[C@H]2C[C@H](O)[C@@H](COP(=O)(O)O[C@H]3[C@@H](O)[C@H](n4cnc5c(N)ncnc54)O[C@@H]3COP(=O)(O)OP(=O)(O)NP(=O)(O)O)O2)c(=O)[nH]1
31P CP-MAS solid-state NMR; 1H-detected hNH NMR [1]: We attribute this initial increase to dinucleotide formation and subsequent binding to pRN1 primase

Nc1ncnc2c1ncn2[C@@H]1O[C@H](COP(=O)(O)OP(=O)(O)OP(=O)(O)O)[C@@H](O)[C@H]1O [ATP]
1H-15N HSQC NMR titration ([2]; HBD-DNA complex, two ATP bound): The data reveal that HBD binds one ATP and one dGTP | time-resolved solution NMR of dinucleotide formation ([3]; co-substrate dGTP): dinucleotide formation with the cognate NTPs was terminated within several minutes

Nc1ncnc2c1ncn2[C@@H]1O[C@H](COP(=O)(O)OP(=O)(O)CP(=O)(O)O)[C@@H](O)[C@H]1O [ATP^C]
1H-15N HSQC NMR ([4]; added together with dGTP^C): both ATP^C and dGTP^C were rapidly added to the HBD-DNA^CT complex | 31P CP-MAS solid-state NMR; 1H-15N HSQC NMR [5]: indeed showing the bound dGTP^C and ATP^C as well as the DNA

Nc1nc2c(ncn2[C@@H]2O[C@H](COP(=O)(O)OP(=O)(O)OP(=O)(O)O)[C@@H](O)[C@H]2O)c(=O)[nH]1 [GTP]
1H-15N HSQC NMR titration ([2]; HBD-DNA complex with ATP): it could bind to the HBD domain in the same manner as for the dGTP substrate

Nc1ncnc2c1ncn2[C@H]1C[C@H](O)[C@@H](COP(=O)(O)OP(=O)(O)OP(=O)(O)O)O1 [dATP]
1H-15N HSQC NMR titration [6]: addition of dATP to the catalytic domain resulted in visible CSPs of V148 and S150

Nc1nc2c(ncn2[C@H]2C[C@H](O)[C@@H](COP(=O)(O)OP(=O)(O)OP(=O)(O)O)O2)c(=O)[nH]1 [dGTP]
1H-15N HSQC NMR titration ([2]; HBD-DNA complex with ATP, displaces one ATP): titration of dGTP in a solution of HBD-DNA^CT-2ATP led to the substitution of one ATP | time-resolved solution NMR of dinucleotide formation ([3]; co-substrate ATP): active primase bound to DNA^CT and the cognate NTPs (ATP and dGTP)

Nc1nc2c(ncn2[C@H]2C[C@H](O)[C@@H](COP(=O)(O)OP(=O)(O)CP(=O)(O)O)O2)c(=O)[nH]1 [dGTP^C]
31P CP-MAS solid-state NMR [7]: wt primase and the mutant H145A bound to DNA^CT, ATP^N and dGTP^C | 1H-15N HSQC NMR ([4]; added together with ATP^C): both ATP^C and dGTP^C were rapidly added to the HBD-DNA^CT complex | 31P CP-MAS solid-state NMR [8]: The isolated resonances of bound dGTP^C decrease in the solid state

CTGTGCTCA (ssDNA) [DNACT (GTG-motif template)]
binding result [9]: binds | binding result [10]: binds | binding result [11]: binds
